The text below walks through data of US9376424B2, “Methods for treating post traumatic stress disorder” (AZEVAN PHARMACEUTICALS, INC., priority 2010, dated 2016).

In this assay the test system is resident male rats. Kind of assay: Resident-Intruder Model of Stress and Aggression in Rats (neuroimaging). It is filed as in vivo, rat. From the text:
Resident-Intruder Model of Stress and Aggression in Rats. Neuroimaging is used to assess the blockade of stress/arousal with test compound compared to control. The effect of AVN251-HCl on functional circuitry was examined using the imaging method for awake rats. Additional details of the assay are described in Ferris et al. (2008).
Male rats in the company of a female cage mate will piloerect in the presence of a male intruder. This piloerection is a sign of stress and aggressive intent and is associated with activation of stress/arousal circuits in the brain. […] Resident male rats from six male:female pairs were imaged while fully awake. During a single imaging session, these males were treated with vehicle or AVN251-HCl (5 mg/kg).
The total volume of brain activation for resident males confronted with their mate alone, mate plus intruder, and mate plus intruder in the presence of AVN251-HCl can be viewed as 3D models. While there appears to be a general decrease in BOLD signal in major regions with AVN251-HCl treatment, sexual motivation, as assessed by the presentation of a novel receptive female, was unaffected by V1a receptor blockade.
Stress circuit activation in response to an intruder male is assessed by obtaining brain scans viewed from a caudal/dorsal perspective as translucent shells. The localization of activated voxels is mapped as 3D volumes of activation, which are composed of 10 subjects each. Once fully registered and segmented, the statistical responses for each subject are averaged on a voxel-by-voxel basis. Those averaged voxels exceeding a 2.0% threshold are shown in their appropriate spatial location. Functional images are acquired on awake rats at 4.7 T.
The 3D volumes of activation are composed from results obtained with 10 subjects in each condition. […] Particular olfactory systems measured included the anterior olfactory nucleus, olfactory tubercle, piriform cortex, n. laterial olfactory tract, and entrorhinal cortex. Particular dopaminergic systems measured included the prelimbic cortex, accumbens, ventral pallidum, medial dorsal thalamus, and ventral tegmentum.
Awake rats were imaged when presented with their mate+an intruder, a highly stressful stimulus.

Entries after “also recorded” stand apart in the source; their conditions may differ.

Turning to `CN(Cc1cccc(C(F)(F)F)c1)C(=O)[C@@H](CC(=O)N1CCC(N2CCCCC2)CC1)N1C(=O)[C@@H](N2C(=O)OC[C@@H]2c2ccccc2)[C@H]1C=Cc1ccccc1` [Example 225, 2(R)-[[4-(Piperidinyl)piperidinyl]carbonylmethyl]-2-[3(S)-(4(S)-phenyloxazolidin-2-on-3-yl)-4(R)-(2-styryl)azetidin-2-on-1-yl]acetic acid N-methyl-N-(3-trifluoromethylbenzyl)amide], the “sexual motivation (reward circuit activation by novel receptive female)” value (awake resident male rats, 5 mg/kg, listed as AVN251, 5 mg/kg) is “activates reward circuitry; also recorded: remained intact”. Also, under “awake resident male rats, mate plus intruder, 5 mg/kg”, the “activation of stress/arousal circuit in response to male intruder (BOLD imaging)” value was “blocked the stress/arousal response”. The “stress and aggressive motivation compared to controls” value (oral administration, intruder stimulus) was “blocked stress and aggressive motivation”.
